Data: patent publication US20230063457A1, “DNA-PK INHIBITING COMPOUNDS” (Provincial Health Services Authority, priority 2019, published 2023)

Tests used:
DNA-PK kinase = DNA-PK kinase (Homo sapiens, UniProt P78527); experiment: Inhibition of DNA-PK kinase activity (ADP-Glo); type: biochemical; settings: averaged values over all measurements on all batches; 150 μM ATP, 1 hour at 25° C.
Experimental: Inhibition of DNA-PK Kinase Activity Assay buffer was 50 mM Hepes pH 7.5 containing 0.1 mg/ml BSA (albumin from bovine serum), 50 μM DTT (dithiothreitol), 20 mM MgCl2 and 10 μg/ml calf thymus DNA (activation buffer). Kinase reaction was carried out in OptiPlate 384 plates (PerkinElmer 6007299). All compounds tested were dissolved in dimethyl sulfoxide (DMSO) and further dilutions were made in assay buffer. Final DMSO concentration was 1% (v/v). Pre-incubation consisted of compound (1% DMSO in control and blank wells) and 24 ng/well DNA-PK kinase to allow the compounds to bind the enzyme (with buffer in the blank wells) for 15 minutes; after this time 150 μM Adenosine-5′-triphosphate (ATP) and 0.2 μg/μl DNA-PK substrate were added to commence the kinase reaction. Incubations were carried out for 1 hour at 25° C. Kinase activity was determined by using ADP-Glo™ reagent from Promega according to the manufacturer's instructions. The light generated was measured using a luminometer (EnVision, PerkinElmer). Signal obtained in the wells containing blank samples was subtracted from all other wells and IC50 values were determined by fitting a sigmoidal curve to % inhibition of control versus Log10 compound concentration.

[1] = biological target: T1, Phospho-DNA-PK in FaDu Cells (Homo sapiens, UniProt P78527); experiment: Effect of compounds on phospho-DNA-PK in FaDu cells (MesoScale sandwich immunoassay); type: cell-based; settings: 1 hour pre-incubation, 1 μg/ml Neocarzinostatin 2 hours, averaged values, read-out: MSD FaDu IC50
T1 construct: host or cells: FaDu
Experimental: Effect of Compounds on Phospho-DNA-PK in FaDu Cells
All compounds tested were dissolved in DMSO and further dilutions were made in culture medium. Final DMSO concentration was 0.3% (v/v). The human FaDu cells (ATCC) were cultured in MEM medium supplemented with Glutamax and 10% fetal calf serum (PAA). Cells were routinely maintained at densities of 0.2×10^6 cells per ml at 37° C. in a humidified 5% CO2, 95% air atmosphere. Cells were passaged twice a week, splitting back to obtain the low density. Cells were seeded in 96 well plates (Corning 3904) at 1×10^6 cells per ml media in a volume of 50 μl per well. Seeded cells were incubated at 37° C. in a humidified 5% CO2, 95% air atmosphere for 24 hours. Compounds were added (25 μl) to the cells and pre-incubated for 1 hour. 1 μg/ml DNA-damaging agent Neocarzinostatin (NCS) was added (25 μl) to a final volume of 100 μl and incubated for 2 hours at 37° C. in a humidified 5% CO2, 95% air atmosphere. After this period of time plates were removed from the incubator and the 100 μl dilutions were removed from the wells gently, prior to the addition of 75 μl cold RIPA lysis buffer with protease and phosphatase inhibitors to achieve the cells lysis, followed by shaking on a plate shaker at 4° C. for 30 minutes. At the end of this incubation, lysate was assessed for phospho-DNA-PK levels by sandwich immune-assay carried out in anti-mouse antibody coated MesoScale plates. […] Signal obtained in the wells containing blank samples was subtracted from all other wells and IC50 values were determined by fitting a sigmoidal curve to % inhibition of control versus Logo compound concentration.

| IC50 (DNA-PK kinase) | IC50 [1] | Compound |
| --- | --- | --- |
| 102 nM | 10000 nM | C[C@H]1CN(c2ncn[nH]2)CC[C@@H]1Oc1nc(N2CCOCC2)cc2ncccc12 (single isomer, unassigned) [Parent compound 158] |
| 10 nM | 270 nM | CNc1cnc2cc(N3CCOCC3)nc(O[C@H]3CC[C@@H](n4ccnc4)CC3)c2c1 [Parent compound 171] |
| 114 nM | 6600 nM | Oc1ccnc(NCC2CCN(c3nc(N4CCOCC4)cc4ncccc34)CC2)n1 [Example 113] |
| 136 nM | 2410 nM | N#Cc1cccc(-c2ccnc(NCC3CCN(c4nc(N5CCOCC5)cc5ncccc45)CC3)n2)n1 [Example 119] |
| 19 nM | 5790 nM | c1cnc2cc(N3CCOCC3)nc(NCC3CCN(c4nnc[nH]4)CC3)c2c1 [Parent compound 152] |
| 26 nM | 1070 nM | c1cnc2cc(N3CCOCC3)nc(OCC3CCN(c4ncn[nH]4)CC3)c2c1 [Parent compound 154] |
| 31 nM | 1170 nM | Oc1cnc2cc(N3CCOCC3)nc(O[C@H]3CC[C@@H](c4ccccc4)CC3)c2c1 [Example 165] |
| 30 nM | 1390 nM | c1cnc(N2CC(COc3nc(N4CCOCC4)cc4ncccc34)C2)nc1 [Example 128] |
| 117 nM | 2890 nM | CS(=O)(=O)N1CCN(c2nc(N3CCOCC3)cc3ncccc23)CC1 [Example 144] |
| 27 nM | 3330 nM | O=C1NCC(CNc2nc(N3CCOCC3)cc3ncccc23)CO1 (centres unmarked) [Parent compound 97] |

The next lines start with the compound.

| Compound | IC50 (DNA-PK kinase) | IC50 [1] |
| --- | --- | --- |
| CC(C)(C)OC(=O)N1CCN(c2nc(N3CCOCC3)cc3ncccc23)CC1 [Example 19] | 159 nM | 6560 nM |
| OCCC1CCN(c2nc(N3CCOCC3)cc3ncccc23)CC1 [Example 15] | 108 nM | 2150 nM |
| c1cnc(NC2CC3(CCN(c4nc(N5CCOCC5)cc5ncccc45)C3)C2)nc1 (mixture of isomers) [Example 1] | 82 nM | 832 nM |
| c1cnc2cc(N3CCOCC3)nc(O[C@H]3CC[C@@H](c4nnn[nH]4)CC3)c2c1 [Example 74] | 3 nM | 759 nM |
| c1cnc2cc(N3CCOCC3)nc(O[C@H]3CC[C@@H](n4ccnn4)CC3)c2c1 [Example 79] | 6 nM | 373 nM |
| c1cnc(NCC2CCN(c3nc(N4CCOCC4)cc4ncccc34)CC2)nc1 [Example 2] | 39 nM | 743 nM |
| NC(=O)[C@H]1CC[C@@H](Oc2nc(N3CCOCC3)cc3ncccc23)CC1 [Example 3] | 9 nM | 361 nM |
| c1cnc(N[C@H]2[C@@H]3CN(c4nc(N5CCOCC5)cc5ncccc45)C[C@@H]32)nc1 [Example 12] | 70 nM | 2550 nM |
| c1cnc(NCc2cnn(-c3nc(N4CCOCC4)cc4ncccc34)c2)nc1 [Example 24] | 213 nM | 9350 nM |
| N#Cc1cnc(NCC2CCN(c3nc(N4CCOCC4)cc4ncccc34)CC2)nc1 [Example 107] | 66 nM | 2370 nM |
| COC(=O)c1cc(N)nc(NCC2CCN(c3nc(N4CCOCC4)cc4ncccc34)CC2)n1 [Example 100] | 32 nM | 2360 nM |
| c1cnc2cc(N3CCOCC3)nc(O[C@H]3C[C@@H](c4ncc[nH]4)C3)c2c1 [Example 87] | 51 nM | 1160 nM |
| Cc1ccnc(NCC2CCN(c3nc(N4CCOCC4)cc4ncccc34)CC2)n1 [Example 109] | 76 nM | 4830 nM |
| [2H]C1([2H])OC([2H])([2H])C([2H])([2H])N(c2cc3ncccc3c(O[C@H]3CC[C@@H](c4nc[nH]n4)CC3)n2)C1([2H])[2H] [Example 65] | 2 nM | 210 nM |
| CS(=O)(=O)[C@H]1CC[C@@H](Oc2nc(N3CCOCC3)cc3ncccc23)CC1 [Example 82] | 141 nM | 1890 nM |
